Counter-ions that a name gives are not always drawn.
Key:
[1] = target: T1, Human fibrinogen receptor (αIIbβ3) (Homo sapiens, UniProt P05106+P08514); test: Purified IIb/IIIa receptor assay (solid phase receptor assay, competition with biotinylated vitronectin); format: binding; settings: read-out: IIb/IIIa IC50
T1 construct: Human fibrinogen receptor (αIIbβ3) was purified from outdated platelets; from tissue; host or cells: outdated human platelets
Method: PURIFIED IIb/IIIa RECEPTOR ASSAY
Human fibrinogen receptor (αIIbβ3) was purified from outdated platelets. […] Biotinylated human vitronectin was prepared by coupling NHS-biotin from Pierce Chemical Company (Rockford, Ill.) to purified vitronectin as previously described. […] Anti-biotin antibody was obtained from Calbiochem (La Jolla, Calif.). Linbro microtiter plates were obtained from Flow Labs (McLean, Va.). ADP reagent was obtained from Sigma (St. Louis, Mo.).
(§1) Solid Phase Receptor Assays
(§2) The purified human fibrinogen receptor (αIIbβ3) was diluted from stock solutions to 1.0 μg/mL in Tris-buffered saline containing 1.0 mM Ca^++, Mg^++, and Mn^++, pH 7.4 (TBS^+++). The diluted receptor was immediately transferred to Linbro microtiter plates at 100 μL/well (100 ng receptor/well). The plates were sealed and incubated overnight at 4° C. to allow the receptor to bind to the wells. All remaining steps were at room temperature. The assay plates were emptied and 200 μL of 1% RIA grade BSA in TBS^+++ (TBS^+++/BSA) were added to block exposed plastic surfaces. Following a 2 hour incubation, the assay plates were washed with TBS^+++ using a 96 well plate washer. Logarithmic serial dilution of the test compound and controls were made starting at a stock concentration of 2 mM and using 2 nM biotinylated vitronectin in TBS^+++/BSA as the diluent. This premixing of labeled ligand with test (or control) ligand, and subsequent transfer of 50 μL aliquots to the assay plate was carried out with a CETUS Propette robot; the final concentration of the labeled ligand was 1 nM and the highest concentration of test compound was 1.0×10^−4 M. The competition occurred for two hours after which all wells were washed with a plate washer as before. Affinity purified horseradish peroxidase labeled goat anti-biotin antibody was diluted 1:3000 in TBS^+++/BSA and 125 μL were added to each well. After 30 minutes, the plates were washed and incubated with ODD/H2O2 substrate in 100 mM/L citrate buffer, pH 5.0. The plate was read with a microtiter plate reader at a wavelength of 450 nm and when the maximum-binding control wells reached an absorbance of about 1.0, the final A450 were recorded for analysis. The data were analyzed using a macro written for use with the EXCEL™ spreadsheet program. The mean, standard deviation, and % CV were determined for duplicate concentrations. The mean A450 values were normalized to the mean of four maximum-binding controls (no competitor added)(B-MAX). The normalized values were subjected to a four parameter curve fit algorithm, [Robard et al., Int.

[2] = target: T2, Human vitronectin receptor (αvβ3) (Homo sapiens, UniProt P05106+P06756); test: Vitronectin adhesion assay (solid phase receptor assay, competition with biotinylated vitronectin); format: binding; settings: read-out: AvB3 IC50
T2 construct: Human vitronectin receptor (αvβ3) was purified from human placenta; from tissue; host or cells: human placenta
Method: VITRONECTIN ADHESION ASSAY
Assay buffer, OPD substrate tablets, and RIA grade BSA were obtained from Sigma (St. Louis, Mo.). Anti-biotin antibody was obtained from Calbiochem (La Jolla, Calif.). Linbro microtiter plates were obtained from Flow Labs (McLean, Va.). ADP reagent was obtained from Sigma (St. Louis, Mo.).
as §1
as §2, with “vitronectin” for “fibrinogen”, “(αvβ3)” for “(αIIbβ3)”, “TBS^+++(TBS^+++/BSA)” for “TBS^+++ (TBS^+++/BSA)”, “OPD/H2O2” for “ODD/H2O2”, “Citrate” for “citrate”, “algorithm [Rodbard” for “algorithm, [Robard”

Row | Structure (SMILES) | IC50 [1] | IC50 [2]
1 | C#C[C@H](CC(=O)O)NC(=O)CNC(=O)c1cccc(N/C(N)=N\C(N)=O)c1 [Example 171, 3S-[[2-[[[3-[[amino[(aminocarbonyl)imino]methyl]amino]phenyl]carbonyl]amino]acetyl]amino]-4-pentynoic acid, trifluoroacetate salt, hydrate] | 0.0832 µM | 0.35 nM
2 | CC(NC(=O)Nc1cccc(C(=O)NCC(=O)NC(CC(=O)O)c2cccnc2)c1)c1ccccc1 (stereo not drawn) [Example 271, β-[[2-[[[3-[[[(1-phenylethyl)amino]carbonyl]amino]phenyl]carbonyl]amino]acetyl]amino]pyridine-3-propanoic acid, trifluoroacetate salt] | 4.61 µM | 29.9 nM
3 | O=C(CNC(=O)c1cccc(NC2=NCCCN2)c1)NC(CC(=O)OCCOCCOCCOCCO)c1cc(Cl)cc(Cl)c1 (racemic) [Example 217, (±)[2-[2-[2-(2-hydroxyethoxy)ethoxy]ethoxy]ethyl]3,5-dichloro-β-[[2-[[[3-[(1,4,5,6-tetrahydropyrimidin-2-yl)amino]phenyl]carbonyl]amino]acetyl]amino]benzenepropanoate, trifluoroacetate salt] | 78.9 µM | 74.8 nM
4 | CCOC(=O)CC(NC(=O)CNC(=O)c1cccc(NC(=N)N)c1)c1ccc2c(c1)OCO2 (racemic) [Example 5, (±)ethyl β-[[2-[[[3-[(aminoiminomethyl)amino]phenyl]carbonyl]amino]acetyl]amino]-1,3-benzodioxole-5-propanoate, trifluoroacetate salt] | 3.15 µM | 227 nM
5 | O=C(O)CC(NC(=O)CNC(=O)c1cccc(NC(=O)NNc2ccccc2)c1)c1cccnc1 (stereo not drawn) [Example 281, β-[[2-[[[3-[[[(phenylamino)amino]carbonyl]amino]phenyl]carbonyl]amino]acetyl]amino]pyridine-3-propanoic acid, trifluoroacetate salt] | 11.5 µM | 4.16 nM
6 | CCOC(=O)CC(NC(=O)CNC(=O)c1cccc(N/C(=N/C#N)NCc2ccccn2)c1)c1ccccc1 (stereo not drawn) [Example 143, ethyl β-[[2-[[[3-[[(cyanoimino)[2-pyridinylmethyl)amino]methyl]amino]phenyl]carbonyl]amino]acetyl]amino]benzenepropanoate, trifluoroacetate salt] | > 100 µM | 6700 nM
7 | CCOC(=O)CCNC(=O)CNC(=O)c1cccc(NC(=N)N)c1 [Example 96, N-[2-[[[3-[(aminoiminomethyl)amino]phenyl]carbonyl]amino]acetyl]-β-alanine, ethyl ester] | 5.4 µM | 1810 nM

Further lines, results first:

Row | IC50 [1] | IC50 [2] | Structure (SMILES)
8 | 0.337 µM | 3.55 nM | N=C(N)Nc1cc(NC(=O)C(F)(F)F)cc(C(=O)NCC(=O)NC(CC(=O)O)c2cc(Cl)cc(Cl)c2)c1 (stereo not drawn) [Example 292, β-[[2-[[[3-[(aminoiminomethyl)amino]-5-(trifluoroacetyl)amino]phenyl]carbonyl]amino]acetyl]amino]-3,5-dichlorobenzenepropanoic acid, trifluoroacetate salt]
9 | 1.02 µM | 1.62 nM | N=C(N)Nc1cc(C(=O)O)cc(C(=O)NCC(=O)NC(CC(=O)O)c2cc(Cl)cc(Cl)c2)c1 (stereo not drawn) [Example 290, β-[[2-[[[3-[(aminoiminomethyl)amino]-5-carboxyphenyl]carbonyl]amino]acetyl]amino]-3,5-dichlorobenzenepropanoic acid, trifluoroacetate salt]
10 | 0.172 µM | 1.24 nM | COc1cc(C(CC(=O)O)NC(=O)CNC(=O)c2cccc(NC(=N)N)c2)cc(Br)c1OC (racemic) [Example 262, (±)β-[[2-[[[3-[(aminoiminomethyl)amino]phenyl]carbonyl]amino]acetyl]amino]-3-bromo-4,5-dimethoxybenzenepropanoic acid, trifluoroacetate salt]
11 | 0.269 µM | 2.29 nM | N=C(N)Nc1cc(C(=O)NCC(=O)NC(CC(=O)O)c2cc(Cl)cc(Cl)c2)ccc1Cl (stereo not drawn) [Example 168, β-[[2-[[[3-[(aminoiminomethyl)amino]-4-chlorophenyl]carbonyl]amino]acetyl]amino]-3,5-dichlorobenzenepropanoic acid, trifluoroacetate salt]
12 | 21.2 µM | 31.1 nM | CC(CC(=O)O)NC(=O)CNC(=O)c1cccc(NC(=O)NCc2cc(Cl)cc(Cl)c2)c1 (stereo not drawn) [Example 274, 3-[[2-[[[3-[[[[(3,5-dichlorophenyl)methyl]amino]carbonyl]amino]phenyl]carbonyl]amino]acetyl]amino]butanoic acid]
13 | 0.277 µM | 1.15 nM | N=C(N)Nc1cccc(C(=O)NCC(=O)NC(CC(=O)O)c2cc(F)cc(C(F)(F)F)c2)c1 (racemic) [Example 208, (±)β-[[2-[[[3-[(aminoiminomethyl)amino]phenyl]carbonyl]amino]acetyl]amino]-3-fluoro-5-(trifluoromethyl)benzenepropanoic acid, trifluoroacetate salt]
14 | 4.66 µM | 49.2 nM | COc1ccc(Br)cc1C(CC(=O)O)NC(=O)CNC(=O)c1cccc(NC(=N)N)c1 (stereo not drawn) [Example 257, β-[[2-[[[3-[(aminoiminomethyl)amino]phenyl]carbonyl]amino]acetyl]amino]-5-bromo-2-methoxybenzenepropanoic acid, trifluoroacetate salt]
15 | 4.56 µM | 17.6 nM | Cc1ccsc1C(CC(=O)O)NC(=O)CNC(=O)c1cccc(NC(=N)N)c1 (stereo not drawn) [Example 244, β-[[2-[[[3-[(aminoiminomethyl)amino]phenyl]carbonyl]amino]acetyl]amino]-3-methylthiophene-2-propanoic acid, trifluoroacetate salt]
16 | 9.16 µM | 5.51 nM | O=C(O)CC(NC(=O)CNC(=O)c1cccc(NC(=O)NCc2ccccc2)c1)c1cccc(Cl)c1 (stereo not drawn) [Example 270, 3-chloro-β-[[2-[[[3-[[[(phenylmethyl)amino]carbonyl]amino]phenyl]carbonyl]amino]acetyl]amino]benzenepropanoic acid, monohydrate]
17 | 0.306 µM | 1.93 nM | Cc1cc(Br)cc(C(CC(=O)O)NC(=O)CNC(=O)c2cccc(NC(=N)N)c2)c1 (racemic) [Example 212, (±)β-[[2-[[[3-[(aminoiminomethyl)amino]phenyl]carbonyl]amino]acetyl]amino]-3-bromo-5-methylbenzenepropanoic acid, trifluoroacetate salt]
18 | 0.533 µM | 2.28 nM | N=C(N)Nc1cccc(C(=O)NCC(=O)NC(CC(=O)O)c2cccc(-c3ccccc3)c2)c1 (stereo not drawn) [Example 242, β-[[2-[[[3-[(aminoiminomethyl)amino]phenyl]carbonyl]amino]acetyl]amino][1,1′-biphenyl]-3-propanoic acid]
